The values that follow come from PMC9960274, “Peptidic Inhibitors and a Fluorescent Probe for the Selective Inhibition and Labelling of Factor XIIIa Transglutaminase” (Molecules, 2023).

For the experiment, the target named is T1, Human TG2 (Homo sapiens, UniProt P21980).
T1 construct: made in house
T1 sequence (P21980 1-687): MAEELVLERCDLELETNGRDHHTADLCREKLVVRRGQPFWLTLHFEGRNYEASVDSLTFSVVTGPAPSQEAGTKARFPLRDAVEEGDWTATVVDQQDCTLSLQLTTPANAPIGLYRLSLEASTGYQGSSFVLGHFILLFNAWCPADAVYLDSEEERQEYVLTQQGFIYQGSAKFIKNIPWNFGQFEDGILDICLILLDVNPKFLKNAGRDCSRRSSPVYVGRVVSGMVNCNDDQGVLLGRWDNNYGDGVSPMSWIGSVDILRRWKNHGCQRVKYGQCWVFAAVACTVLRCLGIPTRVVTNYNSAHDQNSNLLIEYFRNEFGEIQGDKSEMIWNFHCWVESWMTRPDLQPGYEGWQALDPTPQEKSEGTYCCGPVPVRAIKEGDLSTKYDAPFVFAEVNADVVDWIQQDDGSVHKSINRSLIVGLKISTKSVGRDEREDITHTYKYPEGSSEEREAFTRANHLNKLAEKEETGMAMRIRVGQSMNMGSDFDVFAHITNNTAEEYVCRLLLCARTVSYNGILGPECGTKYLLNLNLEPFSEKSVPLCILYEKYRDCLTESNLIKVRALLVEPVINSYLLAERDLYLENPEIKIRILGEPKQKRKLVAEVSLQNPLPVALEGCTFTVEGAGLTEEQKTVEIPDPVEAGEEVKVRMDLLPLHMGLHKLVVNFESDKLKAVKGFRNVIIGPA
Description: Colorimetric AL5 transamidase assay of TG2 inhibition kinetics. It is filed as biochemical. Conditions: for TG2 Inh. Mode: Irrev = irreversible, None = no inhibition detected up to 350 μM; for kinact/KI / kinact: irreversible inhibition; for TG2 inhibition: up to 360 µM; for kinact: saturation fit. The method, then: All inhibitors synthesised herein were evaluated for inhibition against FXIIIa, using the fluorescence-quenched A101 isopeptidase assay, and against TG2, using the colorimetric AL5 transamidase assay. The assay substrates A101 and AL5 both present labile bonds that are cleaved by the activities of their corresponding transglutaminases, resulting in the release of a fluorophore or chromophore moiety, respectively. The rate of consumption of these assay substrates, indicated by increases in fluorescence or absorbance over time, can be detected for measuring enzyme activity. Assays were run in duplicate at constant reporter substrate concentration with varying concentrations of inhibitor. The type of inhibition was determined through visual inspection of the fluorescence-time curvature; termination of the enzymatic reaction with the substrate at a plateau lower than the no-inhibitor positive control is indicative of irreversible inhibition. On the other hand, convergence to a common plateau indicates reversible inhibition.
A colorimetric transamidase assay using chromogenic substrate AL5 (Cbz-Glu(ɣ-p-nitrophenyl ester)Gly-OH) was used to determine TG2 inhibition kinetics as described previously. In brief, assays were conducted at 25 °C in 96-well plates, and absorbance at 405 nm was monitored continuously using a BioTek Synergy 4 plate reader. For each compound, 6 inhibitor concentrations were tested, along with positive (no inhibitor) and negative (no enzyme, no inhibitor) controls. All assays were run in duplicate as separate independent experiments. Human TG2 expressed and purified as described previously and stored in aqueous buffer at −80 °C, was first thawed and diluted to a working concentration of 50 mU/mL in the buffer. The diluted enzyme solution was stored on ice. The appropriate amount of distilled water, 125 μL of aqueous buffer (111 mM MOPS, 15.6 mM CaCl2, pH 6.9), the desired amount of inhibitor (from a DMSO stock solution), and 5.0 μL of AL5 (from a 5.56 mM DMSO solution) were added in that order to 7 Eppendorf tubes to reach final volumes of 250 μL per tube. After mixing thoroughly, 180 μL of the mixture from each tube was transferred to plate wells. To initiate the assay, 20 μL of the diluted TG2 solution was added using a multichannel pipette to each well except the negative control, which was treated with water. The final reaction conditions were pH 6.9, 50.0 mM MOPS, 7.0 mM CaCl2, 100 μM AL5, and 5 mU/mL TG2. […] Data collection was then initiated after mixing by quick aspiration, and the assay was allowed to run for 20 min.
The type of inhibition for both TG2 and FXIIIa was primarily determined by visual inspection of kinetic traces. […] This assumption was tested and validated with inhibitor 47 through an A101 substrate spike experiment. Additional A101 (5 μL of 4000 μM stock in DMSO) was added to enzymatic reactions lacking in inhibitor (positive control) and pre-treated with inhibitor (50, 100, 150, 200 μM) after the initial reactions were complete and fluorescence plateaus had been reached. Data collection at 37 °C was re-commenced immediately after the addition, and fluorescence was monitored over time as previously described. On the other hand, inhibitors producing kinetic curves in which earlier and lower plateaus in fluorescence or absorbance were observed as inhibitor concentration was increased were assumed to be operating through irreversible time-dependent covalent inactivation. This assumption was tested and validated with inhibitor 23 through an A101 substrate spike experiment in which an additional 5 μL of A101 substrate stock solution (4000 μM in DMSO) was added to the positive control and highest inhibitor concentration (200 μM) reaction. […]

Where [1] appears, read: small molecule series, irreversible KI for 87 and 88.

“Also recorded” adds a separate entry of the source. Starred links: 1 amine or outer side, 2 acyl side, 3 side chain; linkers in the order of their positions; H or OH if unused. Non-standard residues stand in square brackets, D forms with d. Residues, ends and D or L forms follow the SMILES beside them. *: point of attachment. RhodamineB = CCN(CC)c1ccc2c(-c3ccccc3C(=O)*)c3ccc(=[N+](CC)CC)cc-3oc2c1; X1 = COC(=O)/C=C/CC[C@H](N[*:1])C(=O)[*:2]; X2 = COC(=O)C=CCCC[C@H](N[*:1])C(=O)[*:2]; X3 = COC(=O)C=CC[C@H](N[*:1])C(=O)[*:2]; Nle = CCCC[C@H](N)C(=O)O; Orn = NCCC[C@H](N)C(=O)O; Dab = NCC[C@H](N)C(=O)O; Acryloyl = C=CC(=O)*; Ahx = NCCCCCC(=O)O

As for `C=CC(=O)NCC[C@H](NC(=O)[C@@H](CC(=O)O)NC(C)=O)C(=O)N[C@@H](CCCC)C(=O)N[C@@H](CCCC)C(=O)N[C@@H](CC(C)C)C(=O)N1CCC[C@H]1C(=O)N[C@@H](Cc1c[nH]c2ccccc12)C(=O)N1CCC[C@H]1C(=O)O` [Compound 12, Ac-D-Asp-Dab(Acrylamide)-Nle-Nle-Leu-Pro-Trp-Pro-OH] (Ac-[dD][Dab](Acryloyl)[Nle][Nle]LPWP-OH), the “TG2 Inh. Mode” value was “No inhibition; also recorded: None **”.

`C=CC(=O)NCCC[C@H](NC(=O)[C@@H](CC(=O)O)NC(C)=O)C(=O)N[C@@H](CCCC)C(=O)N[C@@H](CCCC)C(=O)N[C@@H](CC(C)C)C(=O)N1CCC[C@H]1C(=O)N[C@@H](Cc1c[nH]c2ccccc12)C(=O)N1CCC[C@H]1C(=O)O` [Compound 13] (Ac-[dD][Orn](Acryloyl)[Nle][Nle]LPWP-OH): the “TG2 Inh. Mode” value is listed as “No inhibition; also recorded: None **”.

In the case of `C=CC(=O)NCCCC[C@H](NC(=O)[C@@H](CC(=O)O)NC(C)=O)C(=O)N[C@@H](CCCC)C(=O)N[C@@H](CCCC)C(=O)N[C@@H](CC(C)C)C(=O)N1CCC[C@H]1C(=O)N[C@@H](Cc1c[nH]c2ccccc12)C(=O)N1CCC[C@H]1C(=O)O` [Compound 14] (Ac-[dD]K(Acryloyl)[Nle][Nle]LPWP-OH), the “TG2 Inh. Mode” value is listed as “No inhibition; also recorded: None **”.

Take `CCCC[C@H](NC(=O)[C@H](CC=CC(=O)OC)NC(=O)[C@@H](CC(=O)O)NC(C)=O)C(=O)N[C@@H](CCCC)C(=O)N[C@@H](CC(C)C)C(=O)N1CCC[C@H]1C(=O)N[C@@H](Cc1c[nH]c2ccccc12)C(=O)N1CCC[C@H]1C(=O)O` [Compound 45] (Ac-[dD][X3][Nle][Nle]LPWP-OH): the “TG2 Inh. Mode” value is given as “No inhibition; also recorded: lack of inhibition; also recorded: None **”.

As a reminder, the kinact/KI is the maximal inactivation rate divided by the concentration that gives half of it. Turning to `CCCC[C@H](NC(=O)[C@H](CCCC=CC(=O)OC)NC(=O)[C@@H](CC(=O)O)NC(C)=O)C(=O)N[C@@H](CCCC)C(=O)N[C@@H](CC(C)C)C(=O)N1CCC[C@H]1C(=O)N[C@@H](Cc1c[nH]c2ccccc12)C(=O)N1CCC[C@H]1C(=O)O` [Compound 47] (Ac-[dD][X2][Nle][Nle]LPWP-OH), the “TG2 Inh. Mode” value is “Irrev” and the kinact/KI is 530 M⁻¹ s⁻¹.

For the compound `C=CC(=O)NCC(NC(=O)CC(=O)O)C(=O)N1CCN(S(=O)(=O)c2cccc3c(N(C)C)cccc23)CC1` (stereo not drawn) [Compound 71], for the setting “small molecule series”, the TG2 inhibition result was “No inhibition”.

As to `C=CC(=O)NCC(NC(=O)CC(=O)O)C(=O)N1CCN(C(=O)c2cccc3ccccc23)CC1` (stereo not drawn) [Compound 72], the TG2 inhibition entry (small molecule series) is given as “No inhibition”.

On to `C=CC(=O)NCC(NC(=O)C1(C(=O)OC)CC1)C(=O)N1CCN(S(=O)(=O)c2cccc3c(N(C)C)cccc23)CC1` (stereo not drawn) [Compound 73], for which the TG2 inhibition entry (small molecule series) is “No inhibition”.

Take `C=CC(=O)NCC(NC(=O)C1(C(=O)O)CC1)C(=O)N1CCN(S(=O)(=O)c2cccc3c(N(C)C)cccc23)CC1` [Compound 74, Acid-Cyclopropyl-L-Dap(Acryl)-Piperazine-Dansyl]: the TG2 inhibition result (small molecule series) is given as “No inhibition”.

As to `C=CC(=O)NCC(NC(=O)CCC(=O)O)C(=O)N1CCN(S(=O)(=O)c2cccc3c(N(C)C)cccc23)CC1` [Compound 75, Succinyl-L-Dap(Acryl)-Piperazine-Dansyl], the TG2 inhibition entry (small molecule series) is reported as “No inhibition”.

On to `C=CC(=O)NCC(NC(=O)CCC(=O)O)C(=O)N1CCN(S(=O)(=O)c2cccc3ccccc23)CC1` [Compound 76, Succinyl-L-Dap(Acryl)-Piperazine-Sulfonyl-Naphthalene], for which the TG2 inhibition result (small molecule series) is given as “No inhibition”.

As for `C=CC(=O)NCC(NC(=O)CCC(=O)O)C(=O)N1CCN(C(=O)c2cccc3ccccc23)CC1` [Compound 77, Succinyl-L-Dap(Acryl)-Piperazine-Naphthoyl], for the setting “small molecule series”, the TG2 inhibition result was “No inhibition”.

As for `C=CC(=O)NCC(NS(=O)(=O)CC(=O)O)C(=O)N1CCN(S(=O)(=O)c2cccc3c(N(C)C)cccc23)CC1` (stereo not drawn) [Compound 79], the TG2 inhibition result (small molecule series) was “No inhibition”.

Turning to `C=CC(=O)NC(CNC(=O)CCC(=O)O)C(=O)N1CCN(C(=O)c2cccc3ccccc23)CC1` (stereo not drawn) [Compound 84], the TG2 inhibition entry (small molecule series) is given as “No inhibition”.

The term kinact denotes the maximal first-order rate at which the target is inactivated. Consider `COC(=O)C=CCCC(NC(=O)CCC(=O)O)C(=O)N1CCN(C(=O)c2cccc3ccccc23)CC1` (stereo not drawn) [Compound 87], for which the kinact/KI is 139 M⁻¹ s⁻¹ and the kinact is 0.00199 s⁻¹. For the same compound, the Ki under setting [1] stood at 14.3 ± 7 µM.

As to `COC(=O)C=CCCC(NC(=O)c1ccccc1C(=O)O)C(=O)N1CCN(C(=O)c2cccc3ccccc23)CC1` (stereo not drawn) [Compound 88], the kinact/KI was 104 M⁻¹ s⁻¹ and the kinact is 0.0022 s⁻¹. For the same compound, under setting [1], the KI (inactivation) was determined as 21.2 ± 8.96 µM and the Ki came to 21.2 ± 9 µM.

For the compound `CCCC[C@H](NC(=O)[C@H](CC/C=C/C(=O)OC)NC(=O)[C@@H](CC(=O)O)NC(=O)CCCCCNC(=O)[C@@H]1CCCN1C(=O)c1ccccc1-c1c2ccc(=[N+](CC)CC)cc-2oc2cc(N(CC)CC)ccc12)C(=O)N[C@@H](CCCC)C(=O)N[C@@H](CC(C)C)C(=O)N1CCC[C@H]1C(=O)N[C@@H](Cc1c[nH]c2ccccc12)C(=O)N1CCC[C@H]1C(=O)O` [Compound 93] (RhodamineB-P[Ahx][dD][X1][Nle][Nle]LPWP-OH), the kinact/KI is 325 M⁻¹ s⁻¹.

Regarding “Ac-D-Asp-Dap(Acrylamide)-Nle-Nle-Leu-Pro-Trp-Pro-OH [Compound 11]”, the “TG2 Inh. Mode” value is reported as “No inhibition; also recorded: None **”.
